# Where two headings read alike, the source gives them in different places.
# Key:
# HMEC1 = assay: Cell viability assay (MTT), HMEC1; assay type: cell-based, Human; conditions: MTT, 10% FBS, 6-day treatment, 1% DMSO
# How it was run: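 HMEC1 cells seeded 24 h before dosing, then exposed to 0–200 μM compound (11 concentrations) in medium with 10% FBS and 1% DMSO final, refed every 3 days. Viability read on day 6 by MTT (0.5 mg/ml, 1–5 h at 37 °C), absorbance 550 nm; IC50 from dose-response curves, mean±SEM of 1–8 experiments.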
# HCT116 cells = assay: Anchorage-independent cell growth assay in soft agar; assay type: cell-based, human; conditions: 7 days; for IC50: Homo sapiens, HCT-116, 168 h, HCT116, 0.3% agar
# Protocol: FIG. 3: Anchorage-independent growth assay in soft agar. 5 10^3 cells were seeded in 24-well plates in 0.3% agar-containing medium supplemented with the designated amount of compounds. After 7 days of incubation at 37° C., pictures of each well were taken and analyzed using the ImageJ image analysis software. In particular, clone size and number were calculated. The data were analyzed using GraphPad Prism, and IC50 was calculated. […] (A) Typical dose-response curves obtained for clone size and number. (B) Bar graph displaying the IC50s calculated for each compound.
# In order to evaluate the effect of one compound on the capacity of tumour cells to grow without anchorage, HCT116 cells were seeded in soft agar. In contrast to microplate assays which average the drug's effects over an entire cell population, clonogenic assays offer the possibility of distinguishing cytotoxic agents (i.e., decreased colony number) from cytostatic agents (i.e., decreased colony size without decreased colony number; Murphy M. J. et al., 1996). Briefly, 5 10^3 HCT116 cells were resuspended in 300 μl of complete medium containing 0.3% soft-agar (Difco) and different concentrations of compound (8 concentrations ranging from 0 to 30 μM). Cells were then poured on a solidified layer of medium containing 0.5% of soft agar plus the compound at the same concentration as in the upper layer. Cells were incubated for 7 days at 37° C. before pictures of each well were taken using a phase contrast microscope (Nikon) and a digital camera (Nikon Coolpix 990). Pictures were subsequently analyzed using free image analysis software from the NIH (ImageJ) allowing determination of clone size and number.
# Data were analyzed using the GraphPad Prism software, and IC50 (dose leading to a 50% decrease of clone size or number) was calculated from dose-response curves.
# HCT116 = assay: Cell viability assay (MTT), HCT116; assay type: cell-based, human; conditions: 1% DMSO
# How it was run: (§1)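 Cells seeded 24 h before treatment with 0–200 μM compound (11 concentrations, 1% DMSO final) in 10% or 0.5% FBS medium; exposure 16 h, 3 or 6 days, fed every 3 days in 6-day runs. MTT 0.5 mg/ml read at 550 nm; IC50 from dose-response curves, mean±SEM.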
# MDA-MB-231 = assay: Cell viability assay (MTT), MDA-MB-231; assay type: cell-based, human; conditions: Homo sapiens, 1% DMSO
# How it was run: as §1
# NIH 3T3 = assay: Cell viability assay (MTT), NIH 3T3; assay type: cell-based, mouse; conditions: Mus musculus, 10% FBS, 1% DMSO
# How it was run: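 MTT viability in medium with 10% FBS and 1% DMSO, with cells seeded 24 h before treatment at 0–200 μM (11 concentrations). There were two formats: 6-day (3–15 10^3 cells, re-fed every 3 days) or 16-hour (5–10 10^4 cells). Absorbance was read at 550 nm, giving IC50 (50% cell death) as mean±SEM.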
# DLD1 = assay: Cell viability assay (MTT), DLD1; assay type: cell-based; conditions: Homo sapiens, DLD-1, 72 h, 10% FBS, 3-day treatment, 1% DMSO
# Protocol: (§2) Table 14: 3-day cell viability assay (MTT) in the presence of 10% Fetal Bovine Serum and 1% DMSO, in DLD1, HCT116, MDA-MB-231, MCF7 and HeLa cells. 7.5 10^3 to 1.5 10^4 cells were seeded in 48-well plates in growth medium containing 10% FBS, with or without various concentrations of test compounds. Data were analyzed and IC50s were calculated from dose-response curves using GraphPad Prism. Results summarized in the tables are mean±SEM of 1 to 7 independent experiments.
# (§3) In order to determine a compound's effect on cell viability, microculture tetrazolium assays (MTT) were performed as described by Carmichael et al. (1996) with modifications. Four human tumoral cell lines, namely HCT116 colon adenocarcinoma, H460 lung carcinoma, MCF-7 and MDA-MB-231 breast carcinoma cell lines, DLD1 colorectal adenocarcinoma, HeLa adenocarcinoma, HepG2 hepatocellular carcinoma. 3 immortalized but non tumorigenic cell lines, namely NIH3T3 mouse fibroblasts (American Type Culture Collection) and primary hepatocytes (Biopredic international), cultured according to their recommendations together with Human Microvasculature Endothelial Cell line HMEC1 (National Center for Infectious Diseases). Briefly, cells were seeded in 48-well plates 24 hours before drug addition. Cells were treated with 0 to 200 μM (11 concentrations) of compound solubilized in DMSO, adjusting the final concentration of DMSO to 1% in the well. 16 hours, and three or six days after treatment, 0.5 mg/ml MTT (Sigma) was added to the medium and cells were incubated for 1-5 hours at 37° C. before solubilization of formazan crystals in 100% DMSO. Absorbance was measured using a spectrophotometer at a wavelength of 550 nm. Data was analyzed using the GraphPad Prism software (GraphPad Software, Inc.), and IC50 (dose leading to 50% cell death) was calculated from the dose-response curves.
# MCF7 = assay: Cell viability assay (MTT), MCF7; assay type: cell-based; conditions: Homo sapiens, MCF7, 72 h, 10% FBS, 3-day treatment, 1% DMSO
# Protocol: as §2, with “Table 12: 6-day” for “Table 14: 3-day”, “in HMEC1,” for “in DLD1,”, “and NIH3T3 cell lines. 3” for “and HeLa cells. 7.5”, “to 15 10^3” for “to 1.5 10^4”, “compounds. Cell cultures were fed every 3 days with the appropriate media. Cell viability was determined on day 6.” for “compounds.”, “to 8” for “to 7”
# as §2, §3
# Primary Hepatocytes = assay: Cell viability assay (MTT), primary hepatocytes; assay type: cell-based; conditions: Hepatocyte, 10% FBS, 16-hours treatment, 1% DMSO
# Protocol: (§4) Table 15: 16-hour cell viability assay (MTT) in the presence of 10% Fetal Bovine Serum and 1% DMSO, in HCT116, MDA-MB-231, NIH3T3, HepG2 and primary hepatocytes. 5 10^4 to 10 10^4 cells were seeded in 48-well plates in growth medium containing 10% FBS, with or without various concentrations of test compounds. Data were analyzed and IC50s were calculated from dose-reponse curves using GraphPad Prism. Results summarized in the tables are mean±SEM of 1 to 2 independent experiments.
# as §3
# HepG2 = assay: Cell viability assay (MTT), HepG2; assay type: cell-based; conditions: Homo sapiens, 10% FBS, 16-hours treatment, 1% DMSO
# Protocol: as §4, §3
# HeLa = assay: Cell viability assay (MTT), HeLa; assay type: cell-based; conditions: Homo sapiens, 72 h, 10% FBS, 3-day treatment, 1% DMSO
# Protocol: as §2, §3
# [1] = tested on: Salmonella typhimurium TA 98 and TA 100 strains; assay: Screening Ames test; conditions: with and without S9 mix; 10 to 5000 μg per plate
# From the text: The objective of this study was to evaluate the potential of the test items to induce reverse mutation in Salmonella Typhimurium (TA 98 and TA 100 strains). The bacterial reverse mutation test is able to identify substances that cause point mutations, by substitution, addition or deletion of one or a few DNA base-pairs. Mutagenic substances can induce reversion in histidine deficient strains which are then able to grow and form colonies in a histidine-limited medium, while non-reverted cannot. This test is performed in the absence and presence of a rat liver metabolising system (S9 mix). Three known mutagens are used to check sensitivity of test system: sodium azide, 2-nitrofluorene and 2-anthramine.
# The dose levels per plate were of 10 to 5000 μg. A preliminary toxicity test was performed followed by the mutagenecity test per se.
# [2] = Homo sapiens, HCT-116, 144 h, 0.5% FBS, 6-day treatment
# [3] = Homo sapiens, HCT-116, 144 h, 10% FBS, 6-day treatment
# [4] = MDA-MB-231, 144 h, 0.5% FBS, 6-day treatment, read-out: IC50 (μM), MDA-MB-231
# [5] = MDA-MB-231, 144 h, 10% FBS, 6-day treatment, read-out: IC50 μM, MDA-MB-231
SMILES,"IC50 (HMEC1; Homo sapiens, HMEC-1, 144 h) [µM]",IC50 (HCT116 cells) [µM],IC50 (HCT116; [2]) [µM],IC50 (HCT116; [3]) [µM],IC50 (MDA-MB-231; [4]) [µM],IC50 (MDA-MB-231; [5]) [µM],"IC50 (NIH 3T3; NIH3T3, 144 h, 6-day treatment) [µM]",also measured
"NC(=O)c1nnn(Cc2cc(Cl)c(C(=O)c3ccc(Cl)cc3)c(Cl)c2)c1N [CAI, carboxyamidotriazole, reference compound]",28.4,5.8 ± 1,0.6,1,0.4,1.3,5.8,"mode of action: clone size versus clone number (HCT116 cells; soft agar): preferentially affect clone size as compared to clone number; IC50 (HCT116; Homo sapiens, HCT-116, 16 h, 10% FBS, 16-hours treatment): 44.1 µM; IC50 (MDA-MB-231; MDA-MB-231, 16 h, 10% FBS, 16-hours treatment, read-out: IC50 μM, MDA-MB-231): > 50 µM; IC50 (NIH 3T3; NIH3T3, 16 h, 16-hours treatment): 95.9 µM"
"O=c1cc(CN2CCOCC2)occ1OCc1cccc(CSc2ccnc3cc(C(F)(F)F)ccc23)c1 [EHT 2725, 5-((3-((7-(Trifluoromethyl)quinolin-4-ylthio)methyl)phenyl)methoxy)-2-(morpholinomethyl)-4H-pyran-4-one]",28.1,,5.4,< 4,6.4,9.3,24.8,"IC50 (DLD1): 12.2 µM; IC50 (MCF7): 7.3 µM; IC50 (HCT116; 10% FBS, 6-day treatment): 2.7 µM; IC50 (HCT116; Homo sapiens, HCT-116, 72 h, 10% FBS, 3-day treatment): 9.9 µM; IC50 (MDA-MB-231; MDA-MB-231, 72 h, 10% FBS, 3-day treatment, read-out: IC50 μM, MDA-MB-231): 19.5 µM; IC50 (Primary Hepatocytes): > 50 µM; IC50 (HepG2): 45.2 µM; IC50 (HeLa): 20.9 µM; mutagenic activity [1]: did not show any mutagenic activity"
"O=c1cc(COC2CCCCO2)occ1OCCCCCSc1ccnc2cc(C(F)(F)F)ccc12 (stereo not shown) [EHT 9376, 2-(Tetrahydro-pyran-2-yloxymethyl)-5-[5-(7-trifluoromethyl-quinolin-4-ylsulfanyl)-pentyloxy]-4H-pyran-4-one]",< 10,5.4 ± 1.2,,,,11.5,8.1,IC50 (HMEC1): 8.2 µM

# — US7514432B2, “Compounds and methods of treating cell proliferative diseases, retinopathies and arthritis” (Exonhit Therapeutics SA, priority 2003, dated 2009)
